In US6624120B1, “Substituted herbicidal phenyluracils” (priority 1999, dated 2003):

Legend:
[1] = logP determination by HPLC (EEC Directive 79/831 Annex V.A8), reversed-phase column C 18; assay type: physicochemical
Description: The logP values given in Table 1 were determined in accordance with EEC Directive 79/831 Annex V.A8 by HPLC (High Performance Liquid Chromatography) using a reversed-phase column (C 18). Temperature: 43° C.
(a) Mobile phases for the determination in the acidic range: 0.1% aqeuous phosphoric acid, acetonitrile; linear gradient from 10% acetonitrile to 90% acetonitrile—the corresponding test results in Table 1 are labelled^a).
(b) Mobile phases for the determination in the neutral range: 0.01 molar aqueous phosphate buffer solution, acetonitrile; linear gradient from 10% acetonitrile to 90% acetonitrile—the corresponding test results in Table 1 are labelled^b).
Calibration was carried out using unbranched alkan-2-ones (having 3 to 16 carbon atoms) with known logP values (determination of the logP values by the retention times using linear interpolation between two successive alkanones).

[2] = reversed-phase HPLC column (C 18); a) acidic range: 0.1% aqueous phosphoric acid/acetonitrile gradient, 43° C.

melting point [°C]	chromatographic logP [1, 2]	Structure (SMILES)	further results
168	–	N#Cc1cc(F)c(-n2c(=O)cc(C(F)(F)F)[nH]c2=O)cc1Oc1cccc2c(O)cccc12	–
109	–	COc1cccc2c(Oc3cc(-n4c(=O)cc(C(F)(F)F)n(C)c4=O)c(F)cc3C#N)cccc12	–
92	–	N#Cc1cc(F)c(-n2c(=O)cc(C(F)(F)F)[nH]c2=O)cc1Oc1ccc2ccccc2c1	–
174	–	Cn1c(C(F)(F)F)cc(=O)n(-c2cc(Oc3ccc4cc(O)ccc4c3)c(C#N)cc2F)c1=O	–
133	–	CCOC(=O)C(C)Oc1ccc2ccc(Oc3cc(-n4c(=O)cc(C(F)(F)F)n(C)c4=O)c(F)cc3C#N)cc2c1 (racemic)	–
–	–	CCOC(=O)[C@@H](C)Oc1ccc2cc(Oc3cc(-n4c(=O)cc(C(F)(F)F)n(C)c4=O)c(F)cc3C#N)ccc2c1 [Example 6, ethyl (R)-2-[6-(2-cyano-4-fluoro-5-[3-methyl-2,6-dioxo-4-trifluoromethyl-3,6-dihydro-1(2H)-pyrimidinyl]-phenoxy)-2-naphthyl-oxy]-propanoate]	chromatographic logP ([1]; reversed-phase HPLC column (C 18), at pH 2.3): 3.99
–	2.11	COc1ccc2cc(Oc3cc(-n4c(=O)cc(C(=O)O)[nH]c4=O)c(F)cc3C#N)ccc2c1 [Example 31, 1-[4-cyano-2-fluoro-5-(6-methoxy-naphthalen-2-yl-oxy)-phenyl]-2,6-dioxo-1,2,3,6-tetrahydro-pyrimidine-4-carboxylic acid]	–
–	3.22	COC(=O)c1cc(=O)n(-c2cc(Oc3ccc4cc(OC)ccc4c3)c(C#N)cc2F)c(=O)n1C [Example 33, methyl I-[4-cyano-2-fluoro-5-(6-methoxy-naphthalen-2-yl-oxy)-phenyl]-2,6-dioxo-3-methyl-1,2,3,6-tetrahydro-pyrimidine-4-carboxylate]	–
–	2.06	COc1ccc2cc(Oc3cc(-n4c(=O)cc(C(N)=O)n(C)c4=O)c(F)cc3C#N)ccc2c1 [Example 35, 1-[4-cyano-2-fluoro-5-(6-methoxy-naphthalen-2-yl-oxy)-phenyl]-2,6-dioxo-3-methyl-1,2,3,6-tetrahydro-pyrimidine4-carboxamide]	–
–	–	CCOC(=O)NC1=CC(=O)N(c2cc(Oc3ccc4cc(OC)ccc4c3)c(C#N)cc2F)C1=O [Example (VII-1), ethyl [1-(4-cyano-2-fluoro-5-(6-methoxy-naphthalen-2-yl-oxy)-phenyl)-2,5-dioxo-2,5-dihydro-1H-pyrrol-3-yl]-carbamate]	chromatographic logP ([1]; mobile-phase label not given): 3.63
